Data as given in PubChem BioAssay (NCI).
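Values below derive from 48-hour exposures of cells grown in 96-well plates, with endpoints linearly interpolated between the two concentrations bracketing the appropriate inhibition level. Abbreviation: GI50, concentration required for 50% inhibition of growth. Definition used: TGI = concentration required for complete inhibition of growth.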

What was measured:
Assay in all cases: NCI anticancer screen, dose series, 48 h
[1] = tested on: UACC-257 melanoma
[2] = tested on: MCF7 breast
[3] = tested on: KM12 colon
[4] = tested on: A549 NSCLC
[5] = tested on: RXF 393 renal
[6] = tested on: SR leukemia
[7] = tested on: TK-10 renal
[8] = tested on: CAKI-1 renal
[9] = tested on: UO-31 renal
[10] = tested on: NCI/ADR-RES ovarian
[11] = tested on: MDA-MB-435
[12] = tested on: COLO 205 colon
[13] = tested on: HS 578T breast
[14] = tested on: CCRF-CEM leukemia
[15] = tested on: IGROV1 ovarian
[16] = tested on: SNB-19 CNS
[17] = tested on: T-47D breast
[18] = tested on: SF-539 CNS
[19] = tested on: A498 renal
[20] = tested on: OVCAR-8 ovarian
[21] = tested on: SN12C renal
[22] = tested on: HCT-15 colon
[23] = tested on: ACHN renal
[24] = tested on: MDA-MB-231 breast
[25] = tested on: SK-MEL-28 melanoma
[26] = tested on: HOP-62 NSCLC
[27] = tested on: OVCAR-5 ovarian
[28] = tested on: MOLT-4 leukemia
[29] = tested on: PC-3 prostate
[30] = tested on: MALME-3M melanoma
[31] = tested on: NCI-H23 lung
[32] = tested on: SK-MEL-2 melanoma
[33] = tested on: HT29 colon
[34] = tested on: BT-549 breast
[35] = tested on: HL-60(TB) leukemia
[36] = tested on: 786-0 renal
[37] = tested on: SF-268 CNS
[38] = tested on: M14 melanoma
[39] = tested on: EKVX NSCLC
[40] = tested on: NCI-H226 lung
[41] = tested on: LOX IMVI melanoma
[42] = tested on: SNB-75 CNS
[43] = tested on: SW-620 colon
[44] = tested on: HCT-116 colon
[45] = tested on: SF-295 CNS
[46] = tested on: U251 CNS
[47] = tested on: OVCAR-4 ovarian
[48] = tested on: OVCAR-3 ovarian
[49] = tested on: UACC-62 melanoma
[50] = tested on: SK-MEL-5 melanoma
[51] = tested on: SK-OV-3 ovarian
[52] = tested on: HOP-92 NSCLC
[53] = tested on: K-562 leukemia
[54] = tested on: RPMI-8226 leukemia
[55] = tested on: NCI-H460 lung
[56] = tested on: DU-145 prostate
[57] = tested on: NCI-H522 lung
[58] = tested on: HCC-2998 colon

O=[N+]([O-])c1ccc(C(Br)c2ccc([N+](=O)[O-])cc2)cc1
GI50 [1]: 10.2 µM
TGI [1]: 24.1 µM
GI50 [2]: 4.07 µM
TGI [2]: 18.1 µM
GI50 [3]: 5.09 µM
TGI [3]: 18.4 µM
GI50 [4]: 11.1 µM
TGI [4]: 26.5 µM
GI50 [5]: 12.9 µM
TGI [5]: 26.1 µM
GI50 [6]: 2.36 µM
TGI [6]: 6.73 µM
GI50 [7]: 3.01 µM
TGI [7]: 10.4 µM
GI50 [8]: 2.11 µM
TGI [8]: 4.91 µM
GI50 [9]: 1.68 µM
TGI [9]: 5.34 µM
GI50 [10]: 2.37 µM
TGI [10]: 6.82 µM
GI50 [11]: 3.44 µM
TGI [11]: 13.5 µM
GI50 [12]: 11.1 µM
TGI [12]: 24 µM
GI50 [13]: 17.9 µM
TGI [13]: 53.7 µM
GI50 [14]: 2.11 µM
TGI [14]: 5.98 µM
GI50 [15]: 1.37 µM
TGI [15]: 3.17 µM
GI50 [16]: 15 µM
TGI [16]: 33.2 µM
GI50 [17]: 1.69 µM
TGI [17]: 5.13 µM
GI50 [18]: 15.1 µM
TGI [18]: 31.1 µM
GI50 [19]: 6.06 µM
TGI [19]: 23.5 µM
GI50 [20]: 2.72 µM
TGI [20]: 8.4 µM
GI50 [21]: 3.07 µM
TGI [21]: 11 µM
GI50 [22]: 1.67 µM
TGI [22]: 5.26 µM
GI50 [23]: 11.6 µM
TGI [23]: 26.5 µM
GI50 [24]: 9.54 µM
TGI [24]: 25.2 µM
GI50 [25]: 16.6 µM
TGI [25]: 30.5 µM
GI50 [26]: 12.5 µM
TGI [26]: 25.9 µM
GI50 [27]: 17 µM
TGI [27]: 34.3 µM
GI50 [28]: 2.56 µM
TGI [28]: 6.15 µM
GI50 [29]: 3.34 µM
TGI [29]: 13.5 µM
GI50 [30]: 2.06 µM
TGI [30]: 5.12 µM
GI50 [31]: 2.12 µM
TGI [31]: 7.14 µM
GI50 [32]: 4 µM
TGI [32]: 17.2 µM
GI50 [33]: 1.63 µM
TGI [33]: 5.2 µM
GI50 [34]: 15.8 µM
TGI [34]: 30.7 µM
GI50 [35]: 8.58 µM
TGI [35]: 25.6 µM
GI50 [36]: 9.88 µM
TGI [36]: 26 µM
GI50 [37]: 4.35 µM
TGI [37]: 17.7 µM
GI50 [38]: 1.91 µM
TGI [38]: 4.2 µM
GI50 [39]: 14 µM
TGI [39]: 28.7 µM
GI50 [40]: 5.29 µM
TGI [40]: 23.7 µM
GI50 [41]: 1.65 µM
TGI [41]: 3.23 µM
GI50 [42]: 12.2 µM
TGI [42]: 24.7 µM
GI50 [43]: 2.89 µM
TGI [43]: 12 µM
GI50 [44]: 1.48 µM
TGI [44]: 4.06 µM
GI50 [45]: 13.9 µM
TGI [45]: 28.9 µM
GI50 [46]: 2.31 µM
TGI [46]: 6.16 µM
GI50 [47]: 2.02 µM
TGI [47]: 4.85 µM
GI50 [48]: 11.7 µM
TGI [48]: 24.3 µM
GI50 [49]: 5.11 µM
TGI [49]: 22 µM
GI50 [50]: 2.04 µM
TGI [50]: 4.9 µM
GI50 [51]: 11 µM
TGI [51]: 23 µM
GI50 [52]: 2.01 µM
TGI [52]: 4.99 µM
GI50 [53]: 3.12 µM
TGI [53]: 10.5 µM
GI50 [54]: 2.35 µM
TGI [54]: 6.75 µM
GI50 [55]: 16.3 µM
TGI [55]: 40.2 µM
GI50 [56]: 15.1 µM
TGI [56]: 28.6 µM

CCOC(=O)Cc1csc(NC(=O)COC(=O)c2ccc(N)cc2)n1
GI50 [1]: > 100 µM
TGI [1]: > 100 µM
GI50 [2]: 97.9 µM
TGI [2]: > 100 µM
GI50 [3]: > 100 µM
TGI [3]: > 100 µM
GI50 [4]: > 100 µM
TGI [4]: > 100 µM
GI50 [5]: > 100 µM
TGI [5]: > 100 µM
GI50 [6]: 13.4 µM
TGI [6]: 45.2 µM
GI50 [7]: > 100 µM
TGI [7]: > 100 µM
GI50 [8]: > 100 µM
TGI [8]: > 100 µM
GI50 [9]: 76.6 µM
TGI [9]: > 100 µM
GI50 [10]: > 100 µM
TGI [10]: > 100 µM
GI50 [11]: > 100 µM
TGI [11]: > 100 µM
GI50 [12]: > 100 µM
TGI [12]: > 100 µM
GI50 [13]: > 100 µM
TGI [13]: > 100 µM
GI50 [15]: 21.8 µM
TGI [15]: 49.8 µM
GI50 [16]: > 100 µM
TGI [16]: > 100 µM
GI50 [17]: 75.4 µM
TGI [17]: > 100 µM
GI50 [18]: 19.3 µM
TGI [18]: 37 µM
GI50 [19]: > 100 µM
TGI [19]: > 100 µM
GI50 [20]: 95.7 µM
TGI [20]: > 100 µM
GI50 [21]: > 100 µM
TGI [21]: > 100 µM
GI50 [22]: > 100 µM
TGI [22]: > 100 µM
GI50 [23]: > 100 µM
TGI [23]: > 100 µM
GI50 [24]: > 100 µM
TGI [24]: > 100 µM
GI50 [25]: > 100 µM
TGI [25]: > 100 µM
GI50 [26]: > 100 µM
TGI [26]: > 100 µM
GI50 [27]: 59.3 µM
TGI [27]: > 100 µM
GI50 [28]: 28.5 µM
TGI [28]: 81.4 µM
GI50 [29]: 68.4 µM
TGI [29]: > 100 µM
GI50 [30]: > 100 µM
TGI [30]: > 100 µM
GI50 [32]: > 100 µM
TGI [32]: > 100 µM
GI50 [33]: 56.9 µM
TGI [33]: > 100 µM
GI50 [34]: > 100 µM
TGI [34]: > 100 µM
GI50 [57]: 18.8 µM
TGI [57]: 40 µM
GI50 [35]: 20 µM
TGI [35]: 41.3 µM
GI50 [36]: 23.8 µM
TGI [36]: 56.9 µM
GI50 [37]: 23.6 µM
TGI [37]: 60 µM
GI50 [38]: > 100 µM
TGI [38]: > 100 µM
GI50 [39]: > 100 µM
TGI [39]: > 100 µM
GI50 [40]: > 100 µM
TGI [40]: > 100 µM
GI50 [41]: 14.1 µM
TGI [41]: 34.6 µM
GI50 [42]: 54.4 µM
TGI [42]: > 100 µM
GI50 [43]: > 100 µM
TGI [43]: > 100 µM
GI50 [44]: > 100 µM
TGI [44]: > 100 µM
GI50 [45]: > 100 µM
TGI [45]: > 100 µM
GI50 [46]: > 100 µM
TGI [46]: > 100 µM
GI50 [47]: 72 µM
TGI [47]: > 100 µM
GI50 [48]: 18.8 µM
TGI [48]: 50.7 µM
GI50 [49]: > 100 µM
TGI [49]: > 100 µM
GI50 [50]: 97.6 µM
TGI [50]: > 100 µM
GI50 [51]: > 100 µM
TGI [51]: > 100 µM
GI50 [52]: 20.7 µM
TGI [52]: 44.8 µM
GI50 [53]: 88.3 µM
TGI [53]: > 100 µM
GI50 [58]: > 100 µM
TGI [58]: > 100 µM
GI50 [54]: 40.4 µM
TGI [54]: > 100 µM
GI50 [56]: > 100 µM
TGI [56]: > 100 µM
